According to patent US10294202B2, “Pyrrolidinones as herbicides” (FMC Corporation, priority 2013, dated 2019):

Key:
barnyardgrass [1] = test: Test A pre-/postemergence herbicide test; format: in vivo, Echinochloa crus-galli
Procedure, shortened: (§1)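 Formulated compound (non-phytotoxic solvent, surfactant) sprayed pre- onto soil of seeded loam/sand pots or post- onto seedlings at 1–2 leaves; ~10 d greenhouse; 0–100 visual control rating versus untreated.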

velvetleaf = test: Test A pre-/postemergence herbicide test; format: in vivo, Abutilon theophrasti; conditions: for Plant response rating, Velvetleaf: 0 to 100 scale
Procedure, shortened: as §1

rice = test: Test B flooded paddy test; format: in vivo, Oryza sativa; conditions: 1000 g ai/ha, Flood; scale of 0 to 100 where 0 is no effect and 100 is complete control
Procedure, shortened: (§2)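 Plants were grown to the 2-leaf stage, then pots were flooded to 3 cm above the soil and compound was applied directly into the paddy water, with that depth held throughout. After 13 to 15 days in a greenhouse, injury was rated visually against untreated controls on a 0 to 100 scale (100 = complete control).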

barnyardgrass [2] = test: Test B flooded paddy test; format: in vivo, Echinochloa crus-galli; conditions: 1000 g ai/ha, Flood; scale of 0 to 100 where 0 is no effect and 100 is complete control
Procedure, shortened: as §2

crabgrass, large = test: Test A pre-/postemergence herbicide test; format: in vivo, Digitaria sanguinalis; conditions: for Plant response rating, Crabgrass, Large: 0 to 100 scale
Procedure, shortened: as §1

corn = test: Test A pre-/postemergence herbicide test; format: in vivo, Zea mays
Procedure, shortened: as §1

sedge, umbrella = test: Test B flooded paddy test; format: in vivo, Cyperus difformis; conditions: 1000 g ai/ha, Flood; scale of 0 to 100 where 0 is no effect and 100 is complete control
Procedure, shortened: as §2

wheat = test: Test A pre-/postemergence herbicide test; format: in vivo, Triticum aestivum; conditions: for Plant response rating, Wheat: 0 to 100 scale
Procedure, shortened: as §1

giant foxtail = test: Test A pre-/postemergence herbicide test; format: in vivo, Setaria faberii; conditions: for Plant response rating, Foxtail, Giant: 0 to 100 scale
Procedure, shortened: as §1

pigweed = test: Test A pre-/postemergence herbicide test; format: in vivo, Amaranthus retroflexus; conditions: for Plant response rating, Pigweed: 0 to 100 scale
Procedure, shortened: as §1

morningglory = test: Test A pre-/postemergence herbicide test; format: in vivo, Ipomoea spp.; conditions: for Plant response rating, Morningglory: 0 to 100 scale
Procedure, shortened: as §1

ducksalad = test: Test B flooded paddy test; format: in vivo, Heteranthera limosa; conditions: 1000 g ai/ha, Flood; scale of 0 to 100 where 0 is no effect and 100 is complete control
Procedure, shortened: as §2

[3] = 125 g ai/ha, visual rating, 0 to 100 scale, 0 no effect, 100 complete control, approximately 10 days, preemergence
[4] = Postemergence, 125 g ai/ha, 0 to 100 scale, 0 no effect, 100 complete control
[5] = Postemergence, 500 g ai/ha, 0 to 100 scale (0 no effect, 100 complete control)
[6] = preemergence, 500 g ai/ha, 0 to 100 scale (0 no effect, 100 complete control)
[7] = 125 g ai/ha, visual rating, 0 no effect, 100 complete control, approximately 10 days, preemergence
[8] = Postemergence, 125 g ai/ha, 0 no effect, 100 complete control
[9] = preemergence, 500 g ai/ha, 0 to 100 scale

O=C1NCC(c2ccc3ccccc3c2)C1C(=O)Nc1ccccc1F (racemic) [Compound 115]
80: Plant response rating, Crabgrass, Large (crabgrass, large; preemergence, 500 g ai/ha)
20: Plant response rating, Barnyardgrass (barnyardgrass [2]) | Plant response rating, Foxtail, Giant (giant foxtail; [7]) | Plant response rating, Foxtail, Giant (giant foxtail; preemergence, 500 g ai/ha)
70: Plant response rating, Crabgrass, Large (crabgrass, large; [7])
90: Plant response rating, Ducksalad (ducksalad)
50: Plant response rating, Barnyardgrass (barnyardgrass [1]; [5]) | Plant response rating, Barnyardgrass (barnyardgrass [1]; [6]) | Crabgrass, Large plant response rating (0 to 100 scale, 0 is no effect, 100 is complete control) (crabgrass, large; Postemergence, 500 g ai/ha)
10: Plant response rating, Barnyardgrass (barnyardgrass [1]; [4]) | Foxtail, Giant plant response rating (0 to 100 scale, 0 is no effect, 100 is complete control) (giant foxtail; Postemergence, 500 g ai/ha)
0: Plant response rating, Barnyardgrass (barnyardgrass [1]; [3]) | Plant response rating, Velvetleaf (velvetleaf; [7]) | Plant response rating, Velvetleaf (velvetleaf; [8]) | Velvetleaf plant response rating (0 to 100 scale, 0 is no effect, 100 is complete control) (velvetleaf; Postemergence, 500 g ai/ha) | Plant response rating, Velvetleaf (velvetleaf; preemergence, 500 g ai/ha) | Plant response rating, Rice (rice) | Plant response rating, Crabgrass, Large (crabgrass, large; [8]) | Plant response rating, Corn (corn; [3]) | Plant response rating, Corn (corn; [4]) | Plant response rating, Corn (corn; [5]) | Plant response rating, Corn (corn; [9]) | Plant response rating, Sedge, Umbrella (sedge, umbrella) | Plant response rating, Wheat (wheat; [7]) | Plant response rating, Wheat (wheat; [8]) | Wheat plant response rating (0 to 100 scale, 0 is no effect, 100 is complete control) (wheat; Postemergence, 500 g ai/ha) | Plant response rating, Wheat (wheat; preemergence, 500 g ai/ha) | Plant response rating, Foxtail, Giant (giant foxtail; [8]) | Plant response rating, Pigweed (pigweed; [7]) | Plant response rating, Pigweed (pigweed; [8]) | Pigweed plant response rating (0 to 100 scale, 0 is no effect, 100 is complete control) (pigweed; Postemergence, 500 g ai/ha) | Plant response rating, Pigweed (pigweed; preemergence, 500 g ai/ha) | Plant response rating, Morningglory (morningglory; [7]) | Plant response rating, Morningglory (morningglory; [8]) | Morningglory plant response rating (0 to 100 scale, 0 is no effect, 100 is complete control) (morningglory; Postemergence, 500 g ai/ha) | Plant response rating, Morningglory (morningglory; preemergence, 500 g ai/ha)

O=C1NCC(c2ccc3ccccc3c2)C1C(=O)Nc1cccc(F)c1F (racemic) [Compound 116]
30: Crabgrass, Large plant response rating (0 to 100 scale, 0 is no effect, 100 is complete control) (crabgrass, large; Postemergence, 500 g ai/ha) | Plant response rating, Foxtail, Giant (giant foxtail; preemergence, 500 g ai/ha)
80: Plant response rating, Crabgrass, Large (crabgrass, large; preemergence, 500 g ai/ha) | Plant response rating, Ducksalad (ducksalad)
0: Plant response rating, Barnyardgrass (barnyardgrass [1]; [3]) | Plant response rating, Velvetleaf (velvetleaf; [7]) | Plant response rating, Velvetleaf (velvetleaf; [8]) | Velvetleaf plant response rating (0 to 100 scale, 0 is no effect, 100 is complete control) (velvetleaf; Postemergence, 500 g ai/ha) | Plant response rating, Velvetleaf (velvetleaf; preemergence, 500 g ai/ha) | Plant response rating, Corn (corn; [3]) | Plant response rating, Corn (corn; [4]) | Plant response rating, Corn (corn; [9]) | Plant response rating, Sedge, Umbrella (sedge, umbrella) | Plant response rating, Wheat (wheat; [7]) | Plant response rating, Wheat (wheat; [8]) | Wheat plant response rating (0 to 100 scale, 0 is no effect, 100 is complete control) (wheat; Postemergence, 500 g ai/ha) | Plant response rating, Wheat (wheat; preemergence, 500 g ai/ha) | Plant response rating, Foxtail, Giant (giant foxtail; [7]) | Plant response rating, Foxtail, Giant (giant foxtail; [8]) | Plant response rating, Pigweed (pigweed; [7]) | Plant response rating, Pigweed (pigweed; [8]) | Pigweed plant response rating (0 to 100 scale, 0 is no effect, 100 is complete control) (pigweed; Postemergence, 500 g ai/ha) | Plant response rating, Pigweed (pigweed; preemergence, 500 g ai/ha) | Plant response rating, Morningglory (morningglory; [7]) | Plant response rating, Morningglory (morningglory; [8]) | Morningglory plant response rating (0 to 100 scale, 0 is no effect, 100 is complete control) (morningglory; Postemergence, 500 g ai/ha) | Plant response rating, Morningglory (morningglory; preemergence, 500 g ai/ha)
50: Plant response rating, Barnyardgrass (barnyardgrass [1]; [6])
70: Plant response rating, Crabgrass, Large (crabgrass, large; [7])
40: Plant response rating, Barnyardgrass (barnyardgrass [1]; [5])
15: Plant response rating, Rice (rice)
20: Plant response rating, Barnyardgrass (barnyardgrass [2]) | Plant response rating, Crabgrass, Large (crabgrass, large; [8]) | Plant response rating, Corn (corn; [5]) | Foxtail, Giant plant response rating (0 to 100 scale, 0 is no effect, 100 is complete control) (giant foxtail; Postemergence, 500 g ai/ha)
